The text below walks through data of US20080038728A1, “Quadruple Transformed Cell Line Useful for the Identification of Transport Inhibitors” (priority 2004, published 2008).

The test system of this series is MDCKII cell clones. The experiment in a line: Transcellular leakage of [3H]inulin across MDCKII cell monolayers. It counts as in vitro ADME, canine. The note with it: 1 μM [3H]inulin in basolateral compartment, apical radioactivity after 30 min; all MDCKII cell clones. The method, then:
The transcellular leakage was determined by addition of 1 μM [^3H]inulin to the basolateral compartment and measurement of the radioactivity appearing in the apical compartment after an incubation period of 30 min. The transcellular leakage was 1-2% of the radioactivity added for all MDCKII cell clones examined in this study.

With inulin [[^3H]inulin], the transcellular leakage is given as 1-2 % of the radioactivity added.
